In patent publication US4826856A, “Calcium antagonistic dihydropyridine derivative” (Yason s.r.l., priority 1985, dated 1989):
Like-named read-outs stand apart in the source and are kept apart here.

Tests used:
post-oligoemic rats = test: Transient cerebral oligoemia in the rat, cerebral water, K+ and Ca++ content; type: in vivo; conditions: for overall activity in cerebral oligoemia: p.o.
Experimental: Transient cerebral oligoemia in the rat
The method described by Borzeix in Circulation et Metabolisme du Cerveau 1, 63-79, John Libbey Eurotext Publ. […] The animals were treated by the oral route with the tested drugs twice a day, starting one hour after the ligation and for 3 days, in scalar doses.
The last dose, at the 71th hour after the occlusion, preceeded by one hour the sacrifice of the animal, whose brain was subjected to the determination of the H2 O, K^+ and Ca^++ content.

Rat thoracic aorta = test: Inhibition of the contractile response of rat thoracic aorta strips in vitro; conditions: for EC50: Rattus norvegicus
Experimental: 1. Inhibition of the contractile response of arterial vessels in vitro
Aortic strips (3 mm wide) were dissected from rat thoracic aorta and bathed in a Krebs-Henseleit solution bubbled with O2 :CO2 (95:5) at 38° C., under a tension of 2 g. After a 30-minutes stabilization period, a contraction was induced by adding either KCl (118 mM) or noradrenaline (10^-5 M.l^-1) in a calcium-free medium (Na EDTA 0.1 mM.l^-1) or noradrenaline (10^-5 M.l^-1) after readmission of calcium (CaCl2 1.25 mM.l^-1).

SHR aorta = SHR aorta pretreatment study (PE or K+ contraction); parameters: species or system spontaneously hypertensive rat (SHR)
Experimental: 1.3. SHR aorta--Pretreatment study
SHR aorta were treated with either PE(1 μM) or high potassium (K^+, 80 mM) and the resulting contraction was allowed to sustain for 15 Minutes. After wash out and equilibration (1 hour), tissues were pretreated with a single concentration of either YS 201 or nifedipine. After a 30-minutes equilibration time, tissues were again challenged with either PE or K^+ and the resultant contraction compared to the initial contraction. Contractile effect was measured at 15 minutes after the addition of the agonist (PE or K^+).

Sprague-Dawley rats [1] = test: Ventricular arrhythmias during coronary artery ligation period; type: in vivo, rat; parameters: EBs, mean value of indices + SEM / VT, mean value of indices + SEM / VF, mean value of indices + SEM: scale not given here
Experimental: (§1) Ventricular arrhythmias after coronary artery ligation in the acute phase or during the period of re-circulation
(§2) Sprague-Dawley rats were subjected to ligation of the left coronary artery according to the method of Clark et al. in J. Pharmacol. Methods 3, 357-368, 1980. The drugs were administered by gastric tube 30 minutes before the ligation. By means of a continuous electrocardiographic recording, the ventricular arrhythmias such as ectopic beats (EB), ventricular tachycardia (VT), ventricular fibrillation (VF) for 30 minutes after ligation, were recorded.

Sprague-Dawley rats [2] = test: Ventricular arrhythmias after re-circulation; type: in vivo, rat; conditions: 5 mg/kg p.o.
Experimental: as §1, §2

[3] = Pharmacokinetics and bioavailability in dogs; type: in vivo; conditions: in vivo, 10 mg/kg, dog
Experimental: YS 201 hydrochloride was intravenously and orally administered to dogs at 1 and 10 mg/kg respectively.

[4] = noradrenaline 10^-5 M.l^-1, calcium-free medium, read-out: EC50, NA - Ca++ contraction, rat aorta
[5] = noradrenaline 10^-5 M.l^-1 after readmission of calcium (CaCl2 1.25 mM.l^-1), read-out: EC50, NA + Ca++ contraction, rat aorta

In the case of `COCCOC(=O)C1=C(C)NC(C)=C(C(=O)OC(C)C)C1c1cccc([N+](=O)[O-])c1` (stereo not drawn) [nimodipine], the “Cerebral content of K+” value (post-oligoemic rats; 0.5 mg/kg p.o.) is reported as 442.0 ± 22.40 mmol · kg^-1 dry weig, the “Cerebral content of H2O” value (post-oligoemic rats; 1.5 mg/kg p.o.) is reported as 79.3 ± 0.40% and the “overall activity in cerebral oligoemia” value (post-oligoemic rats) is reported as “fail”. The EC50 (Rat thoracic aorta; [4]) was 100 µM and the EC50 (Rat thoracic aorta; [5]) was 100 µM.

With `COC(=O)C1=C(C)NC(C)=C(C(=O)OC)C1c1ccccc1[N+](=O)[O-]` [nifedipine] the “inhibition of K+-induced contractions, SHR aortic strips” value (SHR aorta) was “extremely potent inhibitors”, the Death rate % (Sprague-Dawley rats [1]; 1.0 mg/kg p.o.) was 0% and the “EBs, mean value of indices + SEM” value (Sprague-Dawley rats [1]; 1.0 mg/kg p.o.) was 70.0 ± 24.72. The VF % (Sprague-Dawley rats [1]; 1.0 mg/kg p.o.) was 80%, the “VF, mean value of indices + SEM” value (Sprague-Dawley rats [1]; 1.0 mg/kg p.o.) was 1.1 ± 0.55 and the “VT, mean value of indices + SEM” value (Sprague-Dawley rats [1]; 1.0 mg/kg p.o.) was 4.4 ± 2.22. The Death rate % (Sprague-Dawley rats [1]; 1.5 mg/kg p.o.) was 20.0%, the “EBs, mean value of indices + SEM” value (Sprague-Dawley rats [1]; 1.5 mg/kg p.o.) was 40.5 ± 20.19 and the VF % (Sprague-Dawley rats [1]; 1.5 mg/kg p.o.) was 60%. The “VF, mean value of indices + SEM” value (Sprague-Dawley rats [1]; 1.5 mg/kg p.o.) was 1.7 ± 0.77 and the “VT, mean value of indices + SEM” value (Sprague-Dawley rats [1]; 1.5 mg/kg p.o.) was 2.1 ± 1.75.

For `CCOC(=O)C1=C(C)NC(C)=C(C(=O)OC)C1c1cccc([N+](=O)[O-])c1` (stereo not drawn) [nitrendipine], the EC50 (Rat thoracic aorta; [5]) was 100 µM and the “activity on contractions induced by noradrenaline in Ca++-free medium vs YS 201” value (Rat thoracic aorta; rat aorta) was “slightly more active than YS 201”.

For `COc1ccc([C@@H]2Sc3ccccc3N(CCN(C)C)C(=O)[C@@H]2OC(C)=O)cc1` [diltiazem, reference compound], the “overall activity in cerebral oligoemia” value (post-oligoemic rats) was “good activity”, the Death rate % (Sprague-Dawley rats [2]) was 27.3% and the “EBs, mean value of indices + SEM” value (Sprague-Dawley rats [2]) was 68.9 ± 32.12. For the same molecule, the VF % (Sprague-Dawley rats [2]) was 45.5%, the “VF, mean value of indices + SEM” value (Sprague-Dawley rats [2]) was 8.8 ± 4.64 and the “VT, mean value of indices + SEM” value (Sprague-Dawley rats [2]) was 4.2 ± 2.54.

With `COc1ccc(CCN(C)CCCC(C#N)(c2ccc(OC)c(OC)c2)C(C)C)cc1OC` (stereo not drawn) [verapamil] the “overall activity in cerebral oligoemia” value (post-oligoemic rats) was “good activity”.

For `COC(=O)C1=C(C)NC(C)=C(C(=O)OCCN(C)Cc2ccccc2)C1c1cccc([N+](=O)[O-])c1` (stereo not drawn) [nicardipine], the “Cerebral content of Ca++” value (post-oligoemic rats; 1 mg/kg p.o.) was 18.4 ± 7.04 mmol · kg^-1 dry weig, the “Cerebral content of K+” value (post-oligoemic rats; 1 mg/kg p.o.) was 460.0 ± 18.96 mmol · kg^-1 dry weig and the “Cerebral content of Ca++” value (post-oligoemic rats; 3 mg/kg p.o.) was 19.4 ± 5.0 mmol · kg^-1 dry weig. For the same molecule, the “Cerebral content of H2O” value (post-oligoemic rats; 3 mg/kg p.o.) was 79.2 ± 0.42%, the “overall activity in cerebral oligoemia” value (post-oligoemic rats) was “fail” and the EC50 (Rat thoracic aorta; [4]) was 100 µM. For the same molecule, the AUC ([3]; po, same dose, read-out: AUC (converted)) was 1280 ng·h/mL, the Cmax ([3]; oral, read-out: maximum concentration (Cmax)) was 220 ng/mL and the Death rate % (Sprague-Dawley rats [1]; 0.5 mg/kg p.o.) was 0%. For the same molecule, the “EBs, mean value of indices + SEM” value (Sprague-Dawley rats [1]; 0.5 mg/kg p.o.) was 10.9, the VF % (Sprague-Dawley rats [1]; 0.5 mg/kg p.o.) was 66.7% and the “VF, mean value of indices + SEM” value (Sprague-Dawley rats [1]; 0.5 mg/kg p.o.) was 2.5. The “VT, mean value of indices + SEM” value (Sprague-Dawley rats [1]; 0.5 mg/kg p.o.) was 2.5, the Death rate % (Sprague-Dawley rats [1]; 1.0 mg/kg p.o.) was 33.3% and the “EBs, mean value of indices + SEM” value (Sprague-Dawley rats [1]; 1.0 mg/kg p.o.) was 22.0. The VF % (Sprague-Dawley rats [1]; 1.0 mg/kg p.o.) was 100%, the “VF, mean value of indices + SEM” value (Sprague-Dawley rats [1]; 1.0 mg/kg p.o.) was 0.9 and the “VT, mean value of indices + SEM” value (Sprague-Dawley rats [1]; 1.0 mg/kg p.o.) was 0.5. The Death rate % (Sprague-Dawley rats [1]; 2.0 mg/kg p.o.) was 25.0%, the “EBs, mean value of indices + SEM” value (Sprague-Dawley rats [1]; 2.0 mg/kg p.o.) was 31.9 and the VF % (Sprague-Dawley rats [1]; 2.0 mg/kg p.o.) was 75%. The “VF, mean value of indices + SEM” value (Sprague-Dawley rats [1]; 2.0 mg/kg p.o.) was 1.2 and the “VT, mean value of indices + SEM” value (Sprague-Dawley rats [1]; 2.0 mg/kg p.o.) was 0.7.
